Experiments:
cannabis EAs [1] = assay: Regeneration of non-transformed cannabis EAs on different SIMs, number of meristems per explant; format: cell-based; conditions: added to SIM with TDZ
From the text: Various experiments were directed to testing different culture media and different concentrations of components of the culture media, such as SIMs with different TDZ concentrations. […] Some experiments were directed to testing different SIMs on cannabis EAs and with different light conditions. For example, the seeds were sterilized and imbibed, and the EAs were extracted. In some experiments, the EAs were not transformed, and between 40 and 50 EAs were regenerated on each different SIMs. In further experiments, a subset of the EAs were plated on an SIM without plant growth regulators, such as TDZ, and the remaining EAs were plated on an SIM with 10 mg/L TDZ, with different groups of each subset being exposed to different light conditions.
The images 1680, 1681, 1683, 1684 show resulting explants regenerated in SIM with 1 mg/L TDZ, 2.5 mg/L TDZ, 5 mg/L TDZ, and 10 mg/L TDZ, respectively.
FIG. 16B is a graph illustrating the explants regenerated in the different SIMs as previously described by FIG. 16A and the number of resulting meristems.
In some experiments, additional TDZ concentrations were tested and different combinations of components in the SIM were tested.

cannabis EAs [2] = assay: Regeneration of cannabis EAs on SIM with 10 mg/L TDZ under different light conditions; format: cell-based; conditions: for explants with 3+ meristems: 10 mg/L TDZ
From the text: Various experiments were directed to testing different culture media and different concentrations of components of the culture media, such as SIMs with different TDZ concentrations. […] Based on various experiments, it is believed that cannabis plants have strong apical dominance, and breaking the apical dominance will increase transformation efficiency and result in more transgenic events. […] Some experiments were directed to testing different SIMs on cannabis EAs and with different light conditions. For example, the seeds were sterilized and imbibed, and the EAs were extracted. In some experiments, the EAs were not transformed, and between 40 and 50 EAs were regenerated on each different SIMs. In further experiments, a subset of the EAs were plated on an SIM without plant growth regulators, such as TDZ, and the remaining EAs were plated on an SIM with 10 mg/L TDZ, with different groups of each subset being exposed to different light conditions. Tables 2 and 3 summarize example media and light conditions:
The B, G, R values in Table 3 include blue, green, and red light values, along with the intensity of the light.
FIGS. 16F and 16G are graphs illustrating the results of the different light conditions on the number of meristems per explant in cultures without plant growth regulators (FIG. 16F) and with 10 mg/L TDZ (FIG. 16G). […] For example, around half of the 10 mg/L TDZ had multiple meristems, with the light II conditions resulting in 40% explants with 3+ meristems, […] explants with 3+ meristems, and light I conditions resulting in 12% explants with 3+ meristems.

Row | Compound | impact of SIM additive on regeneration (cannabis EAs [1]) | share of explants with multiple meristems (cannabis EAs [2]; 10 mg/L TDZ in SIM, FIG. 16G) | explants with 3+ meristems (cannabis EAs [2]; light I conditions) [%] | explants with 3+ meristems (cannabis EAs [2]; light II conditions) [%] | explants with 3+ meristems (cannabis EAs [2]; light II conditions (printed a second time)) [%]
1 | O=C(O)Cc1c[nH]c2ccccc12 [IAA, indoleacetic acid] | did not have a significant positive impact |  |  |  | 
2 | O=C(Nc1ccccc1)Nc1cnns1 [TDZ, thidiazuron] |  | around half | 12 | 40 | 24
3 | Adenine Hemisulfate | did not have a significant positive impact |  |  |  | 
